The values that follow come from paper PMC9964544, “Evidence of Insulin-Sensitizing and Mimetic Activity of the Sesquiterpene Quinone Avarone, a Protein Tyrosine Phosphatase 1B and Aldose Reductase Dual Targeting Agent from the Marine Sponge Dysidea avara” (Pharmaceutics, 2023).

“Also recorded” adds a separate entry of the source.

In one assay the target is T1, Human PTP1B (Homo sapiens, UniProt P18031).
T1 sequence (P18031 1-302): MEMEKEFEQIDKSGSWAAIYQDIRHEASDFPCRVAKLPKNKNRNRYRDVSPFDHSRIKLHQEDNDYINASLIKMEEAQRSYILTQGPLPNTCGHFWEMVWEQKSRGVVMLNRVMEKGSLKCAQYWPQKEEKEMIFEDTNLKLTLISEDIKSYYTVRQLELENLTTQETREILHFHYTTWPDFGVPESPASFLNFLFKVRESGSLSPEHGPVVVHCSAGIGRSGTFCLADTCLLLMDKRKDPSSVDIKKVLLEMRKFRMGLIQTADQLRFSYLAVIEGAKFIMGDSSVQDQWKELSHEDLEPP
Put plainly: PTP1B inhibition assay with pNPP as substrate (IC50). Format: biochemical. Further details: polyHis (N); made in house. As to conditions: 2.5 mM pNPP, 37 °C; IC50 ± SD. The procedure:
The purification of human recombinant AKR1B1 was performed as previously described. […] The purified enzyme, stored at −80 °C in 10 mM sodium phosphate buffer pH 7.0 containing 2 mM DTT and 30% (w/v) glycerol, was extensively dialyzed against 10 mM sodium phosphate buffer pH 7.0 before use. […] The fractions containing PTP1B were collected, concentrated, and injected into a Superdex G75 column equilibrated with Tris-HCl buffer pH 8.0 containing 150 mM NaCl and 1 mM mercaptoethanol. The fractions containing PTP1B were collected and concentrated; the purity of preparation was evaluated using SDS-PAGE. The PTP1B preparation was split into fractions of 0.5 mL volume; each fraction was stored at −80 °C.
The standard assay mixture (final volume 0.7 mL) was contained in 0.25 M sodium phosphate buffer pH 6.8, 0.18 mM NADPH, 0.4 M ammonium sulfate, 0.5 mM EDTA, and 4.7 mM GAL. One unit of enzyme activity is the amount of enzyme that catalyzes the conversion of 1 µmol of substrate/min in the above assay conditions. The same assay conditions were adopted in the inhibition studies using L-idose as the substrate at the indicated concentrations. PTP1B activity was determined using p-nitrophenylphosphate (pNPP) as the synthetic substrate. The pNPP was dissolved in 0.075 M ββ-dimethylglutarate buffer, pH 7.0, containing 1 mM dithiothreitol. Each assay was carried out at 37 °C in 1 mL of assay buffer. The reactions were started by diluting an aliquot of PTP1B preparation in the assay buffer; after 30 min, the reactions were stopped by adding 2 mL of 0.2 M KOH solution. The amount of p-nitrophenol released was determined spectrophotometrically, reading the absorbance of solutions at 400 nm (ε400nm = 18 mM^−^1cm^−^1).

Another assay deals with T2, TC-PTP (Homo sapiens, UniProt P17706).
T2 sequence (P17706 1-415): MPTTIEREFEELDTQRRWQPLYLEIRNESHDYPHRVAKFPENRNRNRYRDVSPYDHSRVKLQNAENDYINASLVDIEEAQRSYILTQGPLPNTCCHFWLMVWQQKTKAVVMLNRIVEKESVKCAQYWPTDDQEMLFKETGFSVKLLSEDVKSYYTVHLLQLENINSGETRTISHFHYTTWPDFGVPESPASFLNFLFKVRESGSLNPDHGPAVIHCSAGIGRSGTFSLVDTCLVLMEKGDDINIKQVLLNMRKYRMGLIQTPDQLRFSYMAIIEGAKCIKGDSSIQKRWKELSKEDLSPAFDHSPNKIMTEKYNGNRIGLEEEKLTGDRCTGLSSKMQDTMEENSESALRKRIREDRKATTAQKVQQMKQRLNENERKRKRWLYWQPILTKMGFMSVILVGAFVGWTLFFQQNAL
In words: TC-PTP inhibition (IC50), specificity of avarone. In kind it is biochemical. As to the method: To evaluate the capacity of avarone to specifically target the PTP1B enzyme, we determined the IC50 value for TC-PTP, another member of the tyrosine phosphatase family (Figure S14). […] To confirm this hypothesis, the interaction mode of avarone with TC-PTP was analyzed by in silico docking analysis carried out using the crystallographic structure (7F5N) deposited in the PDB database.
Figure S13. Binding sites of avarone (2) identified by docking analyses. ( A), General view
of interaction sites of avarone on PTP1B surface. (B), detail showing the molecules of
avarone bound into the active site of PTP1B. The images were obtained using the UCSF
Figure S14. Determination of the IC50 values of avarone for PTP1B (A), and TC-PTP (B).

Another assay has as its system C2C12 cells. In words: Seahorse XFe96 Mito Stress Test in C2C12 cells. Format: cell-based. The following applies: C2C12 treated for 30 min. The procedure:
C2C12 cells (3 × 10^4 cells/well) were placed in XFe96 cell culture plates. After 24 h of incubation at 37 °C, cell growth medium was substituted with an XF base medium supplemented with 2 mM glutamine, 1 mM sodium pyruvate, and 10 mM glucose, pH 7.4. The plate was then transferred in a non-CO2 incubator for 1 h at 37 °C to pre-equilibrate the cells before analysis. An XF Mito Stress Test was performed to assay the cells’ ability to exploit mitochondrial oxidative metabolism, according to the manufacturer’s instructions. The oxygen consumption rate (OCR) was evaluated after the injection of a sequence of compounds that interfere with the electron transport chain: oligomycin (1 μM), carbonyl cyanide-4 (trifluoromethoxy) phenylhydrazone (FCCP) (1 μM), and Rotenone/Antimycin A (0.5 μM). All data were normalized on the protein content of each well.
Figure 10 Results of Mito Stress Test assay. (A) C2C12 cells were subjected to Seahorse XFe96-Mito Stress Test analysis to evaluate oxygen consumption rate (OCR) in real time. OCR values were normalized on protein content. (B) Basal respiration, ATP-linked OCR, spare capacity, maximal respiration, and proton leak were calculated using data obtained from OCR plot after the administration of the adenosine triphosphate ATP synthase inhibitor oligomycin, the proton uncoupler carbonylcyanide p-trifluoromethoxyphenylhydrazone (FCCP), and the combination of the respiratory complex I inhibitor rotenone and the respiratory complex III inhibitor antimycin A. Each point reported in the OCR plot represents the medium value ± SEM obtained from independent replicates (n = 3 or 4). One-way ANOVA with Dunnett’s correction was used to assess differences in experimental features by using Prism 8 software (GraphPad). Statistical significance is annotated as follows: * p ≤ 0.01, ** p ≤ 0.001, *** p ≤ 0.0001, (t-test); ns, not significant; FC, fold change.

Broadly, the IC50 is the point on the concentration scale where inhibition reaches its midpoint. Lower therefore signals greater potency in that assay. Consider `CC1=CCC[C@H]2[C@](C)(CC3=CC(=O)C=CC3=O)[C@@H](C)CC[C@]12C` [avarone (2), avarone], for which, at Human PTP1B, the IC50 worked out at 6.7 ± 0.6 µM. On TC-PTP, this molecule displayed a half-inhibitory concentration (IC50) of 39.2 µM. The “affinity for TC-PTP lower than that for PTP1B” value at TC-PTP (ratio of IC50 values TC-PTP / PTP1B) is listed as 5.8 fold. Besides, in the assay on C2C12 cells, the “basal respiration (OCR)” value was “does not alter basal respiration”, the maximal respiration entry is given as “slightly increases; also recorded: increases”, the “oxygen-dependent ATP production” value was “does not impair the oxygen-dependent ATP production” and the proton leak rate entry is reported as “without enhancing the proton leak rate”. Moreover, the spare capacity result in the assay with C2C12 cells is “slightly increases; also recorded: increases”.
